Experimental data: the supplement of paper PMC10307832

Legend:
Assay in all cases: relative viability (nuclei count vs DMSO), 5 days (fraction); higher = more cells survive
NCI-H1563 = test system: NCI-H1563
How it was run: (§1)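 Cells from lung cancer lines were seeded into 1536-well plates and, one day later, dosed by pin tool. Treatments were either a single drug or a fixed dose of an anchor drug with five library-drug doses (not always all listed) in √10 steps. After 5 days, nuclei were stained in a one-step fixation (final 0.05% Triton X-100, 1% formaldehyde, 1 ug/ml Hoechst) and counted on 4× images, and relative viability is the treated-to-vehicle nuclei ratio, as the median of duplicate plates.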

NCI-H650 = test system: NCI-H650
How it was run: as §1

NCI-H3122 = test system: NCI-H3122
How it was run: as §1

NCI-H2126 = test system: NCI-H2126
How it was run: as §1

NCI-H1755 = test system: NCI-H1755
How it was run: as §1

LU99A = test system: LU99A
How it was run: as §1

NCI-H1437 = test system: NCI-H1437
How it was run: as §1

BEN = test system: BEN
How it was run: as §1

HCC-44 = test system: HCC-44
How it was run: as §1

HCC-15 = test system: HCC-15
How it was run: as §1

NCI-H727 = test system: NCI-H727
How it was run: as §1

NCI-H2023 = test system: NCI-H2023
How it was run: as §1

NCI-H1395 = test system: NCI-H1395
How it was run: as §1

NCI-H1734 = test system: NCI-H1734
How it was run: as §1

SW 1573 = test system: SW 1573
How it was run: as §1

NCI-H1915 = test system: NCI-H1915
How it was run: as §1

LC-2-ad = test system: LC-2-ad
How it was run: as §1

NCI-H2170 = test system: NCI-H2170
How it was run: as §1

NCI-H358 = test system: NCI-H358
How it was run: as §1

EMC-BAC-2 = test system: EMC-BAC-2
How it was run: as §1

HOP-62 = test system: HOP-62
How it was run: as §1

Cc1csc(=NC2CCCCC2)n1/N=C/c1ccc(O)c(O)c1O [MIM1] + CS(=O)(=O)N1CCN(Cc2cc3nc(-c4cccc5[nH]ncc45)nc(N4CCOCC4)c3s2)CC1 [Pictilisib] (partner 1 µM)
relative viability (NCI-H1563; first compound 0.2 µM): 0.628
relative viability (NCI-H1563; first compound 0.6325 µM): 0.672
relative viability (NCI-H1563; first compound 2 µM): 0.636
relative viability (NCI-H1563; first compound 6.325 µM): 0.61
relative viability (NCI-H1563; first compound 20 µM): 0.4
relative viability (NCI-H650; first compound 0.2 µM): 0.988
relative viability (NCI-H650; first compound 0.6325 µM): 0.944
relative viability (NCI-H650; first compound 2 µM): 0.987
relative viability (NCI-H650; first compound 6.325 µM): 0.975
relative viability (NCI-H650; first compound 20 µM): 0.505
relative viability (NCI-H3122; first compound 0.2 µM): 0.644
relative viability (NCI-H3122; first compound 0.6325 µM): 0.529
relative viability (NCI-H3122; first compound 2 µM): 0.701
relative viability (NCI-H3122; first compound 6.325 µM): 0.578
relative viability (NCI-H3122; first compound 20 µM): 0.394
relative viability (NCI-H2126; first compound 0.2 µM): 0.516
relative viability (NCI-H2126; first compound 0.6325 µM): 0.481
relative viability (NCI-H2126; first compound 2 µM): 0.482
relative viability (NCI-H2126; first compound 6.325 µM): 0.467
relative viability (NCI-H2126; first compound 20 µM): 0.344
relative viability (NCI-H1755; first compound 0.2 µM): 0.465
relative viability (NCI-H1755; first compound 0.6325 µM): 0.372
relative viability (NCI-H1755; first compound 2 µM): 0.42
relative viability (NCI-H1755; first compound 6.325 µM): 0.37
relative viability (NCI-H1755; first compound 20 µM): 0.179
relative viability (LU99A; first compound 0.2 µM): 0.394
relative viability (LU99A; first compound 0.6325 µM): 0.344
relative viability (LU99A; first compound 2 µM): 0.303
relative viability (LU99A; first compound 6.325 µM): 0.306
relative viability (LU99A; first compound 20 µM): 0.233
relative viability (NCI-H1437; first compound 0.2 µM): 0.482
relative viability (NCI-H1437; first compound 0.6325 µM): 0.382
relative viability (NCI-H1437; first compound 2 µM): 0.516
relative viability (NCI-H1437; first compound 6.325 µM): 0.269
relative viability (NCI-H1437; first compound 20 µM): 0.128
relative viability (BEN; first compound 0.2 µM): 0.607
relative viability (BEN; first compound 0.6325 µM): 0.594
relative viability (BEN; first compound 2 µM): 0.604
relative viability (BEN; first compound 6.325 µM): 0.531
relative viability (BEN; first compound 20 µM): 0.279
relative viability (HCC-44; first compound 0.2 µM): 0.811
relative viability (HCC-44; first compound 0.6325 µM): 0.589
relative viability (HCC-44; first compound 2 µM): 0.61
relative viability (HCC-44; first compound 6.325 µM): 0.356
relative viability (HCC-44; first compound 20 µM): 0.198
relative viability (HCC-15; first compound 0.2 µM): 0.872
relative viability (HCC-15; first compound 0.6325 µM): 0.455
relative viability (HCC-15; first compound 2 µM): 0.824
relative viability (HCC-15; first compound 6.325 µM): 0.53
relative viability (HCC-15; first compound 20 µM): 0.11
relative viability (NCI-H727; first compound 0.2 µM): 0.415
relative viability (NCI-H727; first compound 0.6325 µM): 0.352
relative viability (NCI-H727; first compound 2 µM): 0.35
relative viability (NCI-H727; first compound 6.325 µM): 0.355
relative viability (NCI-H727; first compound 20 µM): 0.122
relative viability (NCI-H2023; first compound 0.2 µM): 0.238
relative viability (NCI-H2023; first compound 0.6325 µM): 0.26
relative viability (NCI-H2023; first compound 2 µM): 0.226
relative viability (NCI-H2023; first compound 6.325 µM): 0.126
relative viability (NCI-H2023; first compound 20 µM): 0.067
relative viability (NCI-H1395; first compound 0.2 µM): 0.666
relative viability (NCI-H1395; first compound 0.6325 µM): 0.61
relative viability (NCI-H1395; first compound 2 µM): 0.509
relative viability (NCI-H1395; first compound 6.325 µM): 0.377
relative viability (NCI-H1395; first compound 20 µM): 0.365
relative viability (NCI-H1734; first compound 0.2 µM): 0.501
relative viability (NCI-H1734; first compound 0.6325 µM): 0.408
relative viability (NCI-H1734; first compound 2 µM): 0.442
relative viability (NCI-H1734; first compound 6.325 µM): 0.351
relative viability (NCI-H1734; first compound 20 µM): 0.266
relative viability (SW 1573; first compound 0.2 µM): 0.478
relative viability (SW 1573; first compound 0.6325 µM): 0.508
relative viability (SW 1573; first compound 2 µM): 0.592
relative viability (SW 1573; first compound 6.325 µM): 0.461
relative viability (SW 1573; first compound 20 µM): 0.35
relative viability (NCI-H1915; first compound 0.2 µM): 1
relative viability (NCI-H1915; first compound 0.6325 µM): 0.606
relative viability (NCI-H1915; first compound 2 µM): 0.883
relative viability (NCI-H1915; first compound 6.325 µM): 0.708
relative viability (NCI-H1915; first compound 20 µM): 0.477
relative viability (LC-2-ad; first compound 0.2 µM): 0.437
relative viability (LC-2-ad; first compound 0.6325 µM): 0.373
relative viability (LC-2-ad; first compound 2 µM): 0.508
relative viability (LC-2-ad; first compound 6.325 µM): 0.406
relative viability (LC-2-ad; first compound 20 µM): 0.12
relative viability (NCI-H2170; first compound 0.2 µM): 0.394
relative viability (NCI-H2170; first compound 0.6325 µM): 0.28
relative viability (NCI-H2170; first compound 2 µM): 0.321
relative viability (NCI-H2170; first compound 6.325 µM): 0.272
relative viability (NCI-H2170; first compound 20 µM): 0.238
relative viability (NCI-H358; first compound 0.2 µM): 0.309
relative viability (NCI-H358; first compound 0.6325 µM): 0.271
relative viability (NCI-H358; first compound 2 µM): 0.254
relative viability (NCI-H358; first compound 6.325 µM): 0.247
relative viability (NCI-H358; first compound 20 µM): 0.262
relative viability (EMC-BAC-2; first compound 0.2 µM): 0.538
relative viability (EMC-BAC-2; first compound 0.6325 µM): 0.479
relative viability (EMC-BAC-2; first compound 2 µM): 0.542
relative viability (EMC-BAC-2; first compound 6.325 µM): 0.562
relative viability (EMC-BAC-2; first compound 20 µM): 0.238
relative viability (HOP-62; first compound 0.2 µM): 0.803
relative viability (HOP-62; first compound 0.6325 µM): 0.437
relative viability (HOP-62; first compound 2 µM): 0.724
relative viability (HOP-62; first compound 6.325 µM): 0.642
relative viability (HOP-62; first compound 20 µM): 0.127
